Reference: US20170333522A1, “EXPRESSION AND FUNCTION OF GPR64/ADGRG2 IN ENDOCRINE SYSTEMS AND METHODS TO TARGET IT THERAPEUTICALLY” (priority 2016, published 2017)

Key:
[1] = tested on: HEK-CaSR cells; test: cAMP accumulation assay in HEK-CaSR cells; format: cell-based, human; details: activation of CaSR by 3 mM Ca^2+, forskolin-stimulated cells
[2] = tested on: human parathyroid adenoma cells; test: PTH secretion from freshly dispersed human parathyroid adenoma cells (intact PTH ELISA); format: cell-based; details: 30 min
Protocol: Dispersed primary human parathyroid cells were rested for 1 hr at 37° C. in keratinocyte-SFM media (Thermo Fisher Scientific#37010-022) supplemented with the manufacturer's provided media supplements, antibiotics and 1.25 mM Ca^2+. Cells were then centrifuged and transferred to KSFM media with various concentrations of Ca^2+, P-15 peptide, forskolin and volumetric equivalent of DMSO for 30 min at 37° C. Supernatants were collected by centrifugation at 10,000 rpm, 5 min at 4° C. and were stored in −80 for determination of intact PTH.
Human intact PTH (1-84) in cell supernatants was measured in a colorimetric ELISA assay (Immutopics International #60-3000).

[3] = tested on: tumor cells from tertiary hyperparathyroidism; test: PTH secretion from isolated tumor cells of tertiary hyperparathyroidism glands; format: cell-based, human
Protocol: (§1) FIG. 14A. Tertiary hyperparathyroidism following kidney transplantation. […] Isolated tumor cells from tertiary hyperparathyroidism gland A were stimulated with calcium (CaSR agonist) and P-15 peptide (GPR64 agonist) in vitro and PTH secretion was measured.
as §1, with “14B.” for “14A.”, “C” for “A”, “measured. Cells express very high levels of GPR64 and are unresponsive to calcium-mediated suppression of PTH secretion.” for “measured.”

[4] = tested on: P-15-induced CRE induction; test: P-15-induced CRE induction in GPR64-transfected HEK cells after preincubation with kinase inhibitors; format: cell-based, human; details: 1 hr preincubation (H-89 20 μM, U0126 10 μM) before 100 μM P-15 for 5 hrs
Protocol: FIG. 7. HEK cells were transfected with pCRE-Luc and GPR64 and were preincubated with DMSO (vehicle), H-89 (PKA inhibitor, 20 μM) or U0126 (MEK inhibitor, 10 μM) for 1 hr before stimulation with either DMSO or 100 μM P-15 peptide for 5 hrs. Luciferase assay data are normalized to vehicle-preincubated, DMSO stimulated cells. Data are mean±SD from 3 independent experiments conducted in triplicates. *: P<0.05, **: P<0.01.
HEK cells were seeded in white opaque 96-well plates (30,000 cell/well) and were transfected with pCRE-Luc (100 ng/well) along with different doses of empty or GPR64-expressing plasmids. Cell were either left untreated or stimulated with different concentrations of P-15 peptide for 5 hrs at 37° C. Luminescence was measured in a FLEXStationIII plate reader (Molecular Devices).

[5] = target: T1, GPR64ΔNTF (Homo sapiens, UniProt Q8IZP9); test: CRE reporter gene assay (pCRE-Luc) in HEK cells transfected with GPR64ΔNTF; format: cell-based; details: increasing concentrations of P-15, 5 hrs
T1 construct: The human GPR64 variant 1 (full length with 1017 amino acids); expressed in transfected cells; host or cells: AD-293 (HEK) cells, transient transfection with pcDNA3.1-GPR64ΔNTF
Protocol: (§2) FIG. 2. (A) HEK cells were transfected with pCRE-Luc in combination with 200 ng of pcDNA3.1, GPR64 or GPR64ΔNTF plasmids and were stimulated with increasing concentrations of 15 amino acid-long human GPR64 peptide (P-15) for 5 hrs. Luciferase activity (CRE induction) was measured and data were normalized to the values of cells transfected with pcDNA3.1. Data are mean±SD from 3-4 independent experiments conducted in triplicates. (B) Forty eight hrs post-transfection with pcDNA3.1, GPR64 or GPR64ΔNTF plasmids, HEK cells were stimulated with DMSO (vehicle) or 100 μM P-15 peptide for 30 min and cAMP accumulation was measured in an ELISA assay at 405 nm. […] (C) Freshly isolated human adenoma parathyroid cells were stimulated with increasing concentrations of Ca^2+ and P-15 or DMSO (vehicle) for 30 min and the concentration of secreted intact PTH was measured by ELISA. […] (D) Freshly isolated human adenoma parathyroid cells were stimulated with increasing concentrations of Ca^2+ and forskolin (FSK, 3 and 5 μM) or DMSO (vehicle) for 30 min and the concentration of secreted intact PTH was measured by ELISA. […]
(§3) HEK cells were seeded in white opaque 96-well plates (30,000 cell/well) and were transfected with pCRE-Luc (100 ng/well) along with different doses of empty or GPR64-expressing plasmids. […] Luminescence was measured in a FLEXStationIII plate reader (Molecular Devices).

[6] = target: T1, GPR64ΔNTF; test: cAMP accumulation assay in HEK-CaSR cells transfected with GPR64ΔNTF; format: cell-based; details: concomitant 3 mM Ca^2+ and 100 μM P-15
[7] = target: T2, GPR64 (Homo sapiens, UniProt Q8IZP9); test: cAMP accumulation assay in HEK-CaSR cells transfected with GPR64; format: cell-based; design: The human GPR64 variant 1 (full length with 1017 amino acids); expressed in transfected cells; host or cells: HEK-CaSR cells (AD-293 clone stably expressing FLAG-tagged human CaSR), transient transfection with pcDNA3.1-GPR64; details: 100 μM P-15, 30 min, 1.25 or 3 mM Ca^2+
[8] = target: T2, GPR64; test: cAMP accumulation assay (ELISA) in HEK cells transfected with GPR64; format: cell-based; design: The human GPR64 variant 1 (full length with 1017 amino acids); expressed in transfected cells; host or cells: AD-293 (HEK) cells, transient transfection with pcDNA3.1-GPR64; details: 100 μM P-15, 30 min, 48 hrs post-transfection
Protocol: FIG. 2. (A) HEK cells were transfected with pCRE-Luc in combination with 200 ng of pcDNA3.1, GPR64 or GPR64ΔNTF plasmids and were stimulated with increasing concentrations of 15 amino acid-long human GPR64 peptide (P-15) for 5 hrs. Luciferase activity (CRE induction) was measured and data were normalized to the values of cells transfected with pcDNA3.1. Data are mean±SD from 3-4 independent experiments conducted in triplicates. (B) Forty eight hrs post-transfection with pcDNA3.1, GPR64 or GPR64ΔNTF plasmids, HEK cells were stimulated with DMSO (vehicle) or 100 μM P-15 peptide for 30 min and cAMP accumulation was measured in an ELISA assay at 405 nm. Data were corrected to the protein concentration in samples. Data are mean±SD from 3 independent experiments conducted in triplicates. *: P<0.05, ****: P<0.0001. (C) Freshly isolated human adenoma parathyroid cells were stimulated with increasing concentrations of Ca^2+ and P-15 or DMSO (vehicle) for 30 min and the concentration of secreted intact PTH was measured by ELISA. Data were normalized to the PTH secretion in vehicle-treated cells cultured in 0.5 mM Ca^2+. […] (D) Freshly isolated human adenoma parathyroid cells were stimulated with increasing concentrations of Ca^2+ and forskolin (FSK, 3 and 5 μM) or DMSO (vehicle) for 30 min and the concentration of secreted intact PTH was measured by ELISA. […]

[9] = target: T2, GPR64; test: CRE reporter gene assay (pCRE-Luc) in HEK cells transfected with GPR64; format: cell-based; design: The human GPR64 variant 1 (full length with 1017 amino acids); expressed in transfected cells; host or cells: AD-293 (HEK) cells, transient transfection with pcDNA3.1-GPR64; details: increasing concentrations of P-15, 5 hrs
Protocol: as §2, §3

T2 sequence (Q8IZP9 38-1017): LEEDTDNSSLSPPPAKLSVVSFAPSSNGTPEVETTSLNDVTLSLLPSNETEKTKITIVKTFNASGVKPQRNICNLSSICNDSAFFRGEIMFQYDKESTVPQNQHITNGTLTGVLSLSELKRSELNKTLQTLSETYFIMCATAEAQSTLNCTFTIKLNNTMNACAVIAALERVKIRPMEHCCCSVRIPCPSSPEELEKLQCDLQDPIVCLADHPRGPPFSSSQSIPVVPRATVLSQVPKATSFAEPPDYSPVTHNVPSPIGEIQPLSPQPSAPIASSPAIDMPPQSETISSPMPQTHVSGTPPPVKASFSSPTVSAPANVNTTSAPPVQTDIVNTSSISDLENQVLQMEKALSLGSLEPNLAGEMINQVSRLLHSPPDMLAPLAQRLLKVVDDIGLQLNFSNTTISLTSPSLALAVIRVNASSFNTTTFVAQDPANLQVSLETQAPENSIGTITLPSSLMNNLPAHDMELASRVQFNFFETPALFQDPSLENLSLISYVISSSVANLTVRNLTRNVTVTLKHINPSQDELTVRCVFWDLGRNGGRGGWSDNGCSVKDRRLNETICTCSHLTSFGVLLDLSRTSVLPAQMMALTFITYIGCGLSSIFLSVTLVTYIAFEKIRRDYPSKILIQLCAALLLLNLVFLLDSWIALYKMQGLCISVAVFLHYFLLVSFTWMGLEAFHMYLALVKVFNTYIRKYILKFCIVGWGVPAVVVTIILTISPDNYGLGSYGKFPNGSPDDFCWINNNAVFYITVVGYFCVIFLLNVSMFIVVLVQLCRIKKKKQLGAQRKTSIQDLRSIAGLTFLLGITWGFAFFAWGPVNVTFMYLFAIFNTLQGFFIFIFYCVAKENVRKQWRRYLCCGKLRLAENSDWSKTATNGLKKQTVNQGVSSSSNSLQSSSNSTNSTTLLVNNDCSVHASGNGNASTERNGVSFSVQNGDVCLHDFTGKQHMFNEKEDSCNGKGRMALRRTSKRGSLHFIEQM
T1 sequence (Q8IZP9 607-1017 limits assumed, stated change not applied): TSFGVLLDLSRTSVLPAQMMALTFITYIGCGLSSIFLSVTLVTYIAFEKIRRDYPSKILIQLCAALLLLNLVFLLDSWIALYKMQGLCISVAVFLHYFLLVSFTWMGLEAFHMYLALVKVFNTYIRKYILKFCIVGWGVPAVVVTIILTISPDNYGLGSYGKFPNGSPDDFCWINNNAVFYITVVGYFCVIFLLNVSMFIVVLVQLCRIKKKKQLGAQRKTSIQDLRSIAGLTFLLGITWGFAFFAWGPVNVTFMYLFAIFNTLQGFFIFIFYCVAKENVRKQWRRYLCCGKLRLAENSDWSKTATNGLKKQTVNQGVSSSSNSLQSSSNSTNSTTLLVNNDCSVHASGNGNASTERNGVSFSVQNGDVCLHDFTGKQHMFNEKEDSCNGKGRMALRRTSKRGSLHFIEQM

For `[Ca+2].[Cl-].[Cl-]` [Calcium, Calcium chloride, reference compound], the cAMP level [1] was “suppressed cAMP levels significantly”, the PTH secretion ([2]; increasing concentrations of Ca^2+) was “suppressed PTH secretion in a dose-dependent manner” and the “calcium-mediated suppression of PTH secretion” value ([3]; tertiary hyperparathyroidism gland C, cells express very high levels of GPR64) was “unresponsive”.
For `O=S(=O)(NCCNC/C=C/c1ccc(Br)cc1)c1cccc2cnccc12` [H-89], the “effect on P-15-induced CRE induction” value [4] was “blunted the P-15-induced CRE induction”.
In the case of `N#CC(=C(/N)Sc1ccccc1N)/C(C#N)=C(\N)Sc1ccccc1N` [U0126], the “effect on P-15-induced CRE induction” value [4] was “did not inhibit CRE induction”.
TSFGVLLDLSRTSVL [P-15, GPR64 agonist] was tested, and the “CRE induction (luciferase activity)” value [5] was “concentration-dependent CRE induction”, the “intracellular cAMP” value [6] was “restored the intracellular cAMP to the level of cells activated only with P-15 in normocalcemic conditions” and the cAMP production [7] was “increased cAMP production irrespective of CaSR activation with 3 mM Ca^2+”. For the same molecule, the cAMP production [8] was “specifically activates GPR64 to produce cAMP”, the PTH secretion ([2]; P-15 with various concentrations of Ca^2+) was “elevated the PTH secretion” and the PTH secretion ([3]; tertiary hyperparathyroidism gland A, calcium plus P-15 in vitro) was “higher PTH secretion”. For the same molecule, the “CRE induction (luciferase activity)” value ([9]; GPR64-transfected HEK cells) was “concentration-dependent CRE induction” and the “CRE induction (luciferase activity)” value ([9]; control cells (pcDNA3.1-transfected HEK)) was “absent”.
